Data taken from US20250197368A1 (priority 2020, published 2025).

Tests used:
[1] = molecular target: human α3β3γ2 GABAARs (benzodiazepine site) (Homo sapiens (Human), UniProt P18507+P34903); assay: In vitro radioligand binding assay ([3H]Ro15-1788 displacement), α3-GABAAR Ki; conditions: L(tk-) cell membranes, 4 nM [3H]Ro15-1788
Protocol: The affinity (Ki) of compounds for the benzodiazepine site of human recombinant GABAARs was measured by their ability to inhibit the binding of the selective benzodiazepine antagonist [^3H]Ro15-1788 ([^3H] flumazenil).
Mouse L(tk^−) cells stably expressing human α1β3γ2, α2β3γ2, α3β3γ2, α5β3γ2 GABAARs were generated by transfection of the individual subunits in the dexamethasone-inducible expression vector pMSGneo in mouse L(tk^−) cells (Hadingham et al., 1993, Mol. Pharmacol. 43:970-975 and 1993, Mol. Pharmacol. 44:1211-1218).
L(tk^−) cells stably expressing human α1β3γ2, α2β3γ2, α3β3γ2, α5β3γ2 GABAARs were maintained in DMEM F12 medium supplemented with 10% Foetal Bovine Serum, 1% Penicillin/Streptomycin and 1 mg/mL Geneticin G418 in an incubator at 37° C. with a humidified atmosphere with 5% CO2. Dexamethasone was added to the culture medium to induce GABAAR expression.
L(tk−) cells were harvested and membranes were prepared for each receptor combination in either TE buffer (10 mM Tris·CI/0.1 mM EDTA, pH 7.5) or phosphate buffer (K2PO4 10 mM, pH 7.0) (Hadingham et al. (1992) Proc. Natl. Acad. Sci. USA; 89 (14): 6378-82). Protein concentration, receptor expression and the Kd of [^3H]Ro15-1788 were determined before Ki value of the compounds were evaluated. For Kd evaluation, saturation binding curves were obtained by incubating membrane with various concentrations of [^3H]Ro15-1788 (82.5 Ci/mM), with nonspecific binding measured in the presence of 1-3 μM TP003.
For Ki evaluation, cell membranes were incubated with 4 nM [^3H]Ro15-1788 along with a range of concentrations of test compound. Nonspecific binding was determined using 1-3 μM TP003. All incubations were performed for 1 hour at 4° C. in assay buffer. The total assay volume was 0.5 mL, containing 40 μg/well α1β3γ2, 30 μg/well α2β3γ2, 40 μg/well α3β3γ2 and 30 μg/well for α5β3γ2 of membrane protein. Incubations were terminated by filtration and washing with ice cold Tris-HCl buffer (50 mM, pH=7.4) over Whatman GF/B filters and the radioactivity of the filters was measured using liquid scintillation counting.
The % inhibition of [^3H]Ro15-1788 binding was plotted as a function of compound concentration and the IC50 calculated. From the IC50, the affinity (Ki) was calculated using the method of Cheng and Prusoff using the Kd values obtained for [^3H]Ro15-1788.

human α3β3γ2 GABAARs = assay: In vitro electrophysiological recording assay (automated patch-clamp), α3-GABAAR relative efficacy; type: cell-based; conditions: % efficacy normalised to diazepam; GABA EC10-20; concentration generally >= 100 times Ki
Protocol: The efficacy of modulators was evaluated using the automated patch-clamp platforms QPatch16 (Sophion, Copenhagen, Denmark) or SyncroPatch 384PE (Nanion, Germany).
For QPatch electrophysiology testing L(tk^−) cells stably expressing human α1β3γ2, α2β3γ2, α3β3γ2, α5β3γ2 GABAARs were used. HEK293 cells stably expressing human α1β3γ2L, α2β3γ2L, α3β3γ2L and α5β3γ2L GABAARs were used for the SyncroPatch 384PE experiments.
All experiments were carried out at room temperature (20-22° C.) using a standard whole cell procedure and physiological solutions. Gigaseals were formed upon execution of a combined suction/voltage protocol with subsequent increased suction leading to the whole-cell configuration.
The currents recorded were acquired at either 1 KHz or 2 KHz and filtered using a Bessel filter. Whole-cell currents were measured at a holding potential of-65 mV (QPatch) or −80 mV (SyncroPatch).
For QPatch experiments, the extracellular solution contained of: 145 mM NaCl, 4 mM KCl, 1 mM MgCl2, 2 mM CaCl2), 10 mM HEPES, 10 mM D-glucose (pH 7.4), and the intracellular solution consisted of: 96 mM KCl, 28 mM CsCl, 25 mM KOH, 4.3 mM CaCl2), 1.4 mM MgCl2, 10 mM EGTA, 10 mM HEPES, 3 mM MgATP (pH 7.2). The osmolarities of the extracellular and intracellular solutions were 305 and 295 mOsm respectively.
For SyncroPatch experiments, the extracellular recording solution contained: 140 mM NaCl, 4 mM KCl, 2 mM CaCl2), 1 mM MgCl2, 10 mM HEPES, 5 mM glucose (pH 7.4 with NaOH and osmolarity of c. 300-310 mOsm). The intracellular recording solution consisted of: 90 mM KCl, 50 mM KF, 1.5 mM MgCl2, 11.1 mM EGTA and 10 mM HEPES (pH 7.2 with KOH and osmolarity of c. 300 mOsm). 2 mM of NaATP was added to the intracellular solution on the day of testing.
The effects of modulators were evaluated in the presence of a submaximal GABA concentration, giving typically less than 30% activation of the response elicited by a saturating GABA concentration. To check and ensure baseline current stability before compound addition, two to five consecutive applications of GABA EC10-20 separated by wash steps were performed before compound addition. The test compound was applied 1 min at least prior to co-application with GABA EC10-20. Following a further wash step, a saturating concentration of GABA was applied at the end of each recording, allowing the accurate evaluation for each cell of the percentage baseline activation elicited by the submaximal GABA applied.
The compounds were first dissolved in DMSO as a 10 mM stock and then further diluted to the testing concentrations so that the final DMSO concentration in the extracellular recording solution was 0.1% (QPatch) or 0.2% (SyncroPatch).
The % efficacy of modulators was determined from the GABA elicited currents recorded in the presence and absence of the test compound, using the formula:
[((compound peak current−leak)−(GABA peak current-leak))/(GABA peak current−leak)]*100,
where ‘leak’ is the leak baseline current at the holding potential, ‘compound peak current’ is the current elicited by co-application of compound and GABA, and ‘GABA peak current’ is the current elicited by GABA alone at the last GABA application before compound addition. The results were presented as ‘relative efficacy’ for each compound generally at a concentration equal or higher than 100 times their determined Ki. The relative efficacy of a compound was calculated by normalising its % efficacy to the corresponding % efficacy of diazepam that was separately determined.

[2] = molecular target: human α2β3γ2 GABAARs (benzodiazepine site) (Homo sapiens (Human), UniProt P18507+P47869); assay: In vitro radioligand binding assay ([3H]Ro15-1788 displacement), α2-GABAAR Ki
Sequence of human α2β3γ2 GABAARs (benzodiazepine site) (P47869 29-451): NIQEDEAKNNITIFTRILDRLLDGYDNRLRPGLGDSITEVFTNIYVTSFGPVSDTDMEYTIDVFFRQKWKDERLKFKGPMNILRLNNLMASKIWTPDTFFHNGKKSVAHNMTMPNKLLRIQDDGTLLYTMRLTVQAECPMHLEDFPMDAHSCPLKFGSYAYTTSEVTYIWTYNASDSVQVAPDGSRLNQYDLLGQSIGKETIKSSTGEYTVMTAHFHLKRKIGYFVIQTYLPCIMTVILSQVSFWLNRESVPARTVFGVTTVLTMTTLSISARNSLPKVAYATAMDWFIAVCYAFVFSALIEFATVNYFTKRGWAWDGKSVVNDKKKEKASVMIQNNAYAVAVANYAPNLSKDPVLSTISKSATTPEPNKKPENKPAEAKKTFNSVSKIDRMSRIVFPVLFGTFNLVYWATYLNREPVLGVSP
Sequence of human α2β3γ2 GABAARs (benzodiazepine site) (P28472 26-473 partner): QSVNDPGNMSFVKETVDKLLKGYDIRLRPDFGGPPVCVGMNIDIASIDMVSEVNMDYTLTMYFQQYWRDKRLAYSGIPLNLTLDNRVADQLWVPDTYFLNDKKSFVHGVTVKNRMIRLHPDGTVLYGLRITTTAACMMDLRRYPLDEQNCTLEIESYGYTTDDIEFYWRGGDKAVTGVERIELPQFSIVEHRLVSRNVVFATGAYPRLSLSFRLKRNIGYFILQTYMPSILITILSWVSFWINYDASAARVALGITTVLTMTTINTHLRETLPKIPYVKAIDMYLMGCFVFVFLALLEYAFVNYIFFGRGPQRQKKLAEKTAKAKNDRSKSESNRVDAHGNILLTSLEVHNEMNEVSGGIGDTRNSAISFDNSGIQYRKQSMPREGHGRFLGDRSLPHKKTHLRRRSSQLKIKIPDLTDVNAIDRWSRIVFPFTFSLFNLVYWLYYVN
Sequence of human α2β3γ2 GABAARs (benzodiazepine site) (P18507 40-475): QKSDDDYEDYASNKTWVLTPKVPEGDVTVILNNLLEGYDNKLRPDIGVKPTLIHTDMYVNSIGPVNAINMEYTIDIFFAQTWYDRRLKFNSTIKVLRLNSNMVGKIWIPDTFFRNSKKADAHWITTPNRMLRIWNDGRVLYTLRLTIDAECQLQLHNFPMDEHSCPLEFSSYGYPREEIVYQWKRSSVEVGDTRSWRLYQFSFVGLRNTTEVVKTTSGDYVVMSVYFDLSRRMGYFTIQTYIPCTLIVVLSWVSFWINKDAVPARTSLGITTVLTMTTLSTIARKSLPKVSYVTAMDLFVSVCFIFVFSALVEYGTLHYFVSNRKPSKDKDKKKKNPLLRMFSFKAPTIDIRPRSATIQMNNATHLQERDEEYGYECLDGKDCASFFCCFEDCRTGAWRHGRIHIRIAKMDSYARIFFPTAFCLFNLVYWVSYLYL
Procedure, shortened: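 Membranes from dexamethasone-induced mouse L(tk−) cells stably expressing the human receptor were incubated 1 h at 4° C with 4 nM [3H]Ro15-1788 and graded compound; nonspecific binding with 1-3 μM TP003. Filter-bound radioactivity counted; Ki from IC50 by Cheng-Prusoff using the measured radioligand Kd.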

human α2β3γ2 GABAARs = assay: In vitro electrophysiological recording assay (automated patch-clamp), α2-GABAAR relative efficacy; type: cell-based; conditions: % efficacy normalised to diazepam; GABA EC10-20; concentration generally >= 100 times Ki
Procedure, shortened: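 Automated whole-cell patch clamp at 20-22° C on L(tk^−) cells (QPatch, −65 mV) or HEK293 cells (SyncroPatch, −80 mV) stably expressing the human receptor. Compound pre-applied ≥1 min, then co-applied with GABA EC10-20; % potentiation of leak-corrected peak current, normalised to diazepam, typically at ≥100× Ki.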

CCCNC(=O)c1c(N)c2cccc(-c3cc(OCc4c[nH]cn4)ccc3F)c2[nH]c1=O [Example 124, 8-(5-((1H-Imidazol-4-yl)methoxy)-2-fluorophenyl)-4-amino-2-oxo-N-propyl-1,2-dihydroquinoline-3-carboxamide]
Ki [1]: 1.55 nM
α3-GABAAR Relative Efficacy (vs. Diazepam) (human α3β3γ2 GABAARs): 0.34
Ki [2]: 0.98 nM
α2-GABAAR Relative Efficacy (vs. Diazepam) (human α2β3γ2 GABAARs): 0.28

CCCNC(=O)c1c(N)c2cccc(-c3cc(CN4CCN(C)CC4)ccc3F)c2[nH]c1=O [Example 137, 4-Amino-8-[2-fluoro-5-[(4-methylpiperazin-1-yl)methyl]phenyl]-2-oxo-N-propyl-1H-quinoline-3-carboxamide]
Ki [1]: 8.07 nM
α3-GABAAR Relative Efficacy (vs. Diazepam) (human α3β3γ2 GABAARs): 0.53
Ki [2]: 3 nM
α2-GABAAR Relative Efficacy (vs. Diazepam) (human α2β3γ2 GABAARs): 0.42

CCCNC(=O)c1c(N)c2cccc(-c3nc(CN4CCN(C)CC4)ccc3F)c2[nH]c1=O [Example 138, 4-Amino-8-(3-fluoro-6-((4-methylpiperazin-1-yl)methyl)pyridin-2-yl)-2-oxo-N-propyl-1,2-dihydroquinoline-3-carboxamide]
Ki [1]: 4.99 nM
α3-GABAAR Relative Efficacy (vs. Diazepam) (human α3β3γ2 GABAARs): 0.42
Ki [2]: 1.87 nM
α2-GABAAR Relative Efficacy (vs. Diazepam) (human α2β3γ2 GABAARs): 0.17

CCCNC(=O)c1c(N)c2cccc(-c3cc(CN4CCC5(CCN(C)C5)C4)ccc3F)c2[nH]c1=O (centres unmarked) [Example 142, 4-Amino-8-(2-fluoro-5-((7-methyl-2,7-diazaspiro[4.4]nonan-2-yl)methyl)phenyl)-2-oxo-N-propyl-1,2-dihydroquinoline-3-carboxamide]
Ki [1]: 6.35 nM
α3-GABAAR Relative Efficacy (vs. Diazepam) (human α3β3γ2 GABAARs): 0.27
Ki [2]: 3.6 nM
α2-GABAAR Relative Efficacy (vs. Diazepam) (human α2β3γ2 GABAARs): 0.24

CCCNC(=O)c1c(N)c2cccc(-c3cc(CN4CCC5(CCN(C)CC5)C4)ccc3F)c2[nH]c1=O [Example 143, 4-Amino-8-(2-fluoro-5-((8-methyl-2,8-diazaspiro[4.5]decan-2-yl)methyl)phenyl)-2-oxo-N-propyl-1,2-dihydroquinoline-3-carboxamide]
Ki [1]: 10.1 nM
α3-GABAAR Relative Efficacy (vs. Diazepam) (human α3β3γ2 GABAARs): 0.11
Ki [2]: 1.8 nM
α2-GABAAR Relative Efficacy (vs. Diazepam) (human α2β3γ2 GABAARs): 0.32
